Measured values published in US20050215551A1, “1-[2H-1-benzopyran-2-one-8-yl]- piperazine derivatives for the treatment of movement disorders” (SOLVAY PHARMACEUTICALS B.V., priority 2004, published 2005).

Assays:
Glycine strychn. insens. = Glycine strychn. insens. (Rattus norvegicus, UniProt P35439); experiment: Receptor binding Glycine strychn. insens.; settings: radioligand [3H]-MDL105519, read-out: Ki(nM) Compound 1
Description: (§1) Receptor binding data were obtained by CEREP (128, rue Danton, 92500 Rueil-Malmaison, France) or at Solvay Pharmaceuticals B.V., using well documented standard procedures. Affinity for 5-HT1A receptors for instance, was determined by testing the ability of the compounds of the invention to displace [^3H]-2-(di-n-propylamino)-8-hydroxytetralin ([^3H]-8-OH-DPAT) from its specific binding sites in rat frontal cortex homogenates. This test is based on the method described by Gozlan et al. (Nature, 305, (1983), pages 140-142).
(§2) The binding data collected in the table below were either obtained by CEREP (128, rue Danton, 92500 Rueil-Malmaison, France) or at Solvay Pharmaceuticals B.V., using well documented standard procedures.

Histamine-H1 = Histamine-H1 (Homo sapiens, UniProt P35367); experiment: Receptor binding Histamine-H1; settings: radioligand [3H]-pyrilamine, read-out: Ki(nM) Compound 1
Chain of Histamine-H1 (P35367 whole entry): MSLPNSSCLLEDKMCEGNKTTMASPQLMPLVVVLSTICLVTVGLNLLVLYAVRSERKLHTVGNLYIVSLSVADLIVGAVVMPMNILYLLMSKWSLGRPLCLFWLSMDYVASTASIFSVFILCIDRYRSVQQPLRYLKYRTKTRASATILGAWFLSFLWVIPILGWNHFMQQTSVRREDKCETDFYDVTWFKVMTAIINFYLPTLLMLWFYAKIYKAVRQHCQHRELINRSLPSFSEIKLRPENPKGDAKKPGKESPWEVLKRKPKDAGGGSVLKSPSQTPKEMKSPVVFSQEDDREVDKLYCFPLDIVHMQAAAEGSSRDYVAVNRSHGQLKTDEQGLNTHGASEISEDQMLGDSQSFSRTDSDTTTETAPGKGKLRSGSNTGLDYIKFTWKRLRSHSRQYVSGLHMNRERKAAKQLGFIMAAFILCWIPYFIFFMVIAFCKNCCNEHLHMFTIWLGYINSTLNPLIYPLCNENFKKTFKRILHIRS
Description: as §1, §2

β3-adrenergic = β3-adrenergic (Homo sapiens, UniProt P13945); experiment: Receptor binding β3-adrenergic; settings: radioligand [125I]-iodocyanopindolol, read-out: Ki(nM) Compound 1
Description: as §1, §2

GDNF = experiment: Induction of growth factors: GDNF RNA in brain areas by quantitative PCR; assay type: in vivo; settings: 3 mg/kg p.o. once daily, 3 weeks
Description: Compounds of the invention (3 mg/kg, p.o.) or vehicle are administered once daily during a period of 3 weeks (n=8 animals per treatment group). 24 hours after the last dose the animals are sacrificed (using CO2/O2 anesthesia), the brains are removed and the dissected. RNA is extracted from the individual brain samples and induction of the growth factors BDNF and GDNF is determined by quantitative PCR. Total RNA is isolated with the Trizol method (Invitrogen) from the brain pieces. cDNA is made starting with 2 μg of total RNA (pretreated for 30 min with DNAse (Ambion) in first strand buffer) using the reverse transcriptase Superscript II (Invitrogen). Quantification of […] by real time PCR makes use of the observation that the early cycles of PCR are characterized by an exponential increase in target amplification. The accumulation of PCR product is measured using Sybergreen II. Primers are designed using the software package Primer Express (Applied Biosystems). Expression levels of the housekeeping genes ornithine decarboxylase (ODC_ex8) and alpha tubulin (TUBA) used for normalization and as control for good cDNA synthesis.

nicotine = nicotine (Rattus norvegicus, UniProt P09483+P12390); experiment: Receptor binding nicotine; settings: radioligand [3H]-cytisine, read-out: Ki(nM) Compound 1
Chain of nicotine (P12390 25-500): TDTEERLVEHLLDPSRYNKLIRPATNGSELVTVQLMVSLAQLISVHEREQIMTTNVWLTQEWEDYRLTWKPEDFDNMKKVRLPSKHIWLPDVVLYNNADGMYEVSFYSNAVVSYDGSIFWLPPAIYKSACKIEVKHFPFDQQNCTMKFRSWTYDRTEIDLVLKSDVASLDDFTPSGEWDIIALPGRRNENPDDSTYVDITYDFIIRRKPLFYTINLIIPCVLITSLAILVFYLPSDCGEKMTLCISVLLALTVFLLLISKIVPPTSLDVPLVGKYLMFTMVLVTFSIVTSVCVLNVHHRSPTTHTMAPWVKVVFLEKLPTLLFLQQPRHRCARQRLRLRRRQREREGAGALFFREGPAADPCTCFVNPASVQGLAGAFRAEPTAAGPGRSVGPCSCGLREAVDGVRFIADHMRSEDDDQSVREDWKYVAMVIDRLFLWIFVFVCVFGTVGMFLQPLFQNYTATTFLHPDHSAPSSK
Chain of nicotine (P09483 31-630): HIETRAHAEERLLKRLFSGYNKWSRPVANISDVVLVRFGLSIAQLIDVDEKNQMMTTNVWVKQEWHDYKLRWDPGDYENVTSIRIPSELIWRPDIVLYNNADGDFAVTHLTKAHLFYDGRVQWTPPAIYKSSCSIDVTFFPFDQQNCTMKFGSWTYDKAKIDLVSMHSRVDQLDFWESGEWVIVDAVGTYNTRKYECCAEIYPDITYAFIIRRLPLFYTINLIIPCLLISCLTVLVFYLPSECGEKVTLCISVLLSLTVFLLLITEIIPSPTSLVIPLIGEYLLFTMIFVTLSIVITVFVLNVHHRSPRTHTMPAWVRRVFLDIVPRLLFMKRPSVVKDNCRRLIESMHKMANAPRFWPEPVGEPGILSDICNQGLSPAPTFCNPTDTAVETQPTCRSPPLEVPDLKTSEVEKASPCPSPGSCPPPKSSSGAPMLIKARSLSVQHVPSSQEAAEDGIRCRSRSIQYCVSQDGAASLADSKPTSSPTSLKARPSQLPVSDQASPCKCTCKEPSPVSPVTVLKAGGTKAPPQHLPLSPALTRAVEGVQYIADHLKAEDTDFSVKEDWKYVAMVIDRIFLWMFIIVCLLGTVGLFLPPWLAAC
Description: as §1, §2

5-HT2A = 5-HT2A (Homo sapiens, UniProt P28223); experiment: Receptor binding 5-HT2A; settings: radioligand [3H]-ketanserin, read-out: Ki(nM) Compound 1
Description: as §1, §2

Galanin-GAL2 = Galanin-GAL2 (Homo sapiens, UniProt O43603); experiment: Receptor binding Galanin-GAL2; settings: radioligand [125I]-galanin, read-out: Ki(nM) Compound 1
Chain of Galanin-GAL2 (O43603 whole entry): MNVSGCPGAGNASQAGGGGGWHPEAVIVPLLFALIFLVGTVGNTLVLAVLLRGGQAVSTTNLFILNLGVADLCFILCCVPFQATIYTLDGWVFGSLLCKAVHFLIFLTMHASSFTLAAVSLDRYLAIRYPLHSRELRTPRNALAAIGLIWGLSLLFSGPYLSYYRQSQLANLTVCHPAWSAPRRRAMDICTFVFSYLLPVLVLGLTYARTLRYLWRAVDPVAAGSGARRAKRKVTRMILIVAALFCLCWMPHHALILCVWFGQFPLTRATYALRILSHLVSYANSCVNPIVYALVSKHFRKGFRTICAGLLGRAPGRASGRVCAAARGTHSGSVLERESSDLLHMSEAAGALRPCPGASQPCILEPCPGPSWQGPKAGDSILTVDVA
Description: as §1, §2

Prostaglandin-H2 = Prostaglandin-H2 (Homo sapiens, UniProt P21731); experiment: Receptor binding Prostaglandin-H2; settings: radioligand [3H]-SQ 29548, read-out: Ki(nM) Compound 1
Description: as §1, §2

sigma-SG1 = sigma-SG1 (Cavia porcellus, UniProt Q60492); experiment: Receptor binding sigma-SG1; settings: radioligand [3H]-pentazocone; guinea pig; read-out: Ki(nM) Compound 1
Description: as §1, §2

bradykinin = bradykinin (Homo sapiens, UniProt P30411); experiment: Receptor binding bradykinin; settings: radioligand [3H]-bradykinin, read-out: Ki(nM) Compound 1
Description: as §1, §2

cannabinoid-CB1 = cannabinoid-CB1 (Homo sapiens, UniProt P21554); experiment: Receptor binding cannabinoid-CB1; settings: radioligand [3H]-WIN 55,212-2, read-out: Ki(nM) Compound 1
Description: as §1, §2

CCKB = CCKB (Homo sapiens, UniProt P32239); experiment: Receptor binding CCKB; settings: radioligand [3H]-CCK8, read-out: Ki(nM) Compound 1
Chain of CCKB (P32239 whole entry): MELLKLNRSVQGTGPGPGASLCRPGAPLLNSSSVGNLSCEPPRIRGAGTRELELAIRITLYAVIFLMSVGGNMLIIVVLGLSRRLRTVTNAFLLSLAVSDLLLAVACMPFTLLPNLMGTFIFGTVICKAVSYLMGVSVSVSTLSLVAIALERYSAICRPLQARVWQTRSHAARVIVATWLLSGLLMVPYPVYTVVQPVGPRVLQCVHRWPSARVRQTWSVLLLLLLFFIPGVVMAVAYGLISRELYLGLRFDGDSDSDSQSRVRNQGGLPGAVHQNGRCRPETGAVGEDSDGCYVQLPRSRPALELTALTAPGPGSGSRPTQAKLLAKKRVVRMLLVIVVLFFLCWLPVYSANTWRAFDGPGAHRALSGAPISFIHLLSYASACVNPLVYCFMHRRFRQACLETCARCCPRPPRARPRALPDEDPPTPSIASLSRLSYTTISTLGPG
Description: as §1, §2

VIP1 = VIP1 (Homo sapiens, UniProt P32241); experiment: Receptor binding VIP1; settings: radioligand [125I]-VIP, read-out: Ki(nM) Compound 1
Chain of VIP1 (P32241 31-457): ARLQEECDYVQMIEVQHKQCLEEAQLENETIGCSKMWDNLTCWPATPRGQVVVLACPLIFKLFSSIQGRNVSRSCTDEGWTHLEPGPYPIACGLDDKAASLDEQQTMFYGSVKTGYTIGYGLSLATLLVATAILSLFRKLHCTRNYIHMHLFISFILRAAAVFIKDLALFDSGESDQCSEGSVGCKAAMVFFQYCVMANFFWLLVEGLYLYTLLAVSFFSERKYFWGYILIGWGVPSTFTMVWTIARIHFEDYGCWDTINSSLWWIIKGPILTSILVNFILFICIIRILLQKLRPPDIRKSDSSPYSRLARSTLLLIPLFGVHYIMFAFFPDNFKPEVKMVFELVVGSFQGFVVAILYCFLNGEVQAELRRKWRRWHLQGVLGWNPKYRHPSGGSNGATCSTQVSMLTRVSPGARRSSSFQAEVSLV
Description: as §1, §2

CRF = CRF (Homo sapiens, UniProt P34998); experiment: Receptor binding CRF; settings: radioligand [125I]-oCRF, read-out: Ki(nM) Compound 1
Chain of CRF (P34998 24-415): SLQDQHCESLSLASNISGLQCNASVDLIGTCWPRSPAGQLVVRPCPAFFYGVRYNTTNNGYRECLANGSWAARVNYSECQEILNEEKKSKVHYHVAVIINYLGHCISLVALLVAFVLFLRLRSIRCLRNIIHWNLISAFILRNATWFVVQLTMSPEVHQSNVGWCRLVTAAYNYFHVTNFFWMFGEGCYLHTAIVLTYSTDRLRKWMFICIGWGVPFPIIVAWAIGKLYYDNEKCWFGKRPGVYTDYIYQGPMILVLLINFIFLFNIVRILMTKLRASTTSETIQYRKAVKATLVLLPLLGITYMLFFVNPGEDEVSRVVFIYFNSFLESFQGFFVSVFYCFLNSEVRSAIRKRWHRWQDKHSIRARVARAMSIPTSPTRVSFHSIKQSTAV
Description: as §1, §2

5-HT1A = 5-HT1A (Homo sapiens, UniProt P08908); experiment: Receptor binding 5-HT1A; settings: radioligand [3H]-8-OH-DPAT, read-out: Ki(nM) Compound 1
Adenosine-A2A = Adenosine-A2A (Homo sapiens, UniProt P29274); experiment: Receptor binding Adenosine-A2A; settings: radioligand [3H]-CGS 21680, read-out: Ki(nM) Compound 1
Description: as §1, §2

Histamine-H2 = Histamine-H2 (Homo sapiens, UniProt P25021); experiment: Receptor binding Histamine-H2; settings: radioligand [125I]-APT, read-out: Ki(nM) Compound 1
Description: as §1, §2

Dopamine-D3 = Dopamine-D3 (Homo sapiens, UniProt P35462); experiment: Receptor binding Dopamine-D3; settings: radioligand [3H]-spiperone, read-out: Ki(nM) Compound 1
Chain of Dopamine-D3 (P35462 whole entry): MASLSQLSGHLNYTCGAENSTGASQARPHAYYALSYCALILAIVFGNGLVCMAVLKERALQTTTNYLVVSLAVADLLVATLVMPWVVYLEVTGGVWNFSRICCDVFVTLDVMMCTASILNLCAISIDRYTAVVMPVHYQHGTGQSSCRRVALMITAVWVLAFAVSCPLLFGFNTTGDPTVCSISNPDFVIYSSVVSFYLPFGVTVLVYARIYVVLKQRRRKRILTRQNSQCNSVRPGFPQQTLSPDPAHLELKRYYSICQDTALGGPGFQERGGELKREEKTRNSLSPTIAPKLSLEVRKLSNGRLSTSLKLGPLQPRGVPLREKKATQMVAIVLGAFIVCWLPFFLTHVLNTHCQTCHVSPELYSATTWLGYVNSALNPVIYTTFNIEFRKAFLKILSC
Description: as §1, §2

Galanin-GAL1 = Galanin-GAL1 (Homo sapiens, UniProt P47211); experiment: Receptor binding Galanin-GAL1; settings: radioligand [125I]-galanin, read-out: Ki(nM) Compound 1
Description: as §1, §2

5-HT1B = 5-HT1B (Rattus norvegicus, UniProt P28564); experiment: Receptor binding 5-HT1B; settings: radioligand [125I]-cyanopindolol, read-out: Ki(nM) Compound 1
Chain of 5-HT1B (P28564 whole entry): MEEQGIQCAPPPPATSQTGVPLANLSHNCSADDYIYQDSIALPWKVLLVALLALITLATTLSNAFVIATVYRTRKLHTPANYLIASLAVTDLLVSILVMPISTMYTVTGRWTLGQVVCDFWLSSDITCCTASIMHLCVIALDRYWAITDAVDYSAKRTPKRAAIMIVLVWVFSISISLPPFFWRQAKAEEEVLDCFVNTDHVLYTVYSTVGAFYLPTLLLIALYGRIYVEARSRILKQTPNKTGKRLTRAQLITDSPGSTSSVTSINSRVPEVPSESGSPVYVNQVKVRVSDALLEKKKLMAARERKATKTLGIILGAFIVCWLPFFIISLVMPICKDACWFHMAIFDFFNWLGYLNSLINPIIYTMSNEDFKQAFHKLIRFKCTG
Description: as §1, §2

LTB4 = LTB4 (Cavia porcellus, UniProt H0VYV8); experiment: Receptor binding LTB4; settings: radioligand [3H]-LTB4; guinea pig; read-out: Ki(nM) Compound 1
Chain of LTB4 (H0VYV8 1-348): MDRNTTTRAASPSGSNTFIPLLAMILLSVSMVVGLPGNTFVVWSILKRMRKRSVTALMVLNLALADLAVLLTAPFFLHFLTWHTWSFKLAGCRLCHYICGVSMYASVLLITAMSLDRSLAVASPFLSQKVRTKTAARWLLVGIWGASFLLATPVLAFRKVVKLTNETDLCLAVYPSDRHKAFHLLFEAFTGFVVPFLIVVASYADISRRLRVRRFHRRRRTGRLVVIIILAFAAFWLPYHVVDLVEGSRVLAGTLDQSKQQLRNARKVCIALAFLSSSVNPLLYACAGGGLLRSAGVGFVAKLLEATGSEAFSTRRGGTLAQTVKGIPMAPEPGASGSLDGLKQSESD
Description: as §1, §2

CCR1 = CCR1 (Homo sapiens, UniProt P32246); experiment: Receptor binding CCR1; settings: radioligand [125I]-MIP-1a, read-out: Ki(nM) Compound 1
Description: as §1, §2

Neuropeptide Y1 = Neuropeptide Y1 (Homo sapiens, UniProt P25929); experiment: Receptor binding Neuropeptide Y1; settings: radioligand [125I]-PYY, read-out: Ki(nM) Compound 1
Chain of Neuropeptide Y1 (P25929 whole entry): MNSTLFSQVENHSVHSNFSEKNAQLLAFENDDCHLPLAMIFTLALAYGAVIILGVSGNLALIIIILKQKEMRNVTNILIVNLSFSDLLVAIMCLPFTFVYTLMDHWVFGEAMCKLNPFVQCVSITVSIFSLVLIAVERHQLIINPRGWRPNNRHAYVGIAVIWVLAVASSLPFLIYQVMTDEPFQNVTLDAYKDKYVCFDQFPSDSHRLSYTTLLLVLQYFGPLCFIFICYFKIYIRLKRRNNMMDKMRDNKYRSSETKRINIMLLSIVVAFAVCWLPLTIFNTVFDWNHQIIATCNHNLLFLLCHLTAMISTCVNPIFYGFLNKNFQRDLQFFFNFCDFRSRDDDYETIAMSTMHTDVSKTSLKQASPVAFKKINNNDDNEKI
Description: as §1, §2

## Nc1cc2cccc(N3CCNCC3)c2oc1=O [Compound 1, 3-amino-8-(1-piperazinyl)-2H-1-benzopyran-2-one]
Glycine strychn. insens.
  Ki: > 10000 nM
Histamine-H1
  Ki: > 1000 nM
β3-adrenergic
  Ki: > 1000 nM
GDNF; hippocampus
  GDNF RNA, fold increase compared to vehicle treatment: 1.7 fold
GDNF; nucleus accumbens
  GDNF RNA, fold increase compared to vehicle treatment: 1.5 fold
GDNF; prefrontal cortex
  GDNF RNA, fold increase compared to vehicle treatment: 1.3 fold
GDNF; striatum
  GDNF RNA, fold increase compared to vehicle treatment: 2.2 fold
GDNF; thalamus
  GDNF RNA, fold increase compared to vehicle treatment: 2.6 fold
nicotine
  Ki: > 10000 nM
5-HT2A
  Ki: 630 nM
Galanin-GAL2
  Ki: > 1000 nM
Prostaglandin-H2
  Ki: > 1000 nM
sigma-SG1
  Ki: > 1000 nM
bradykinin
  Ki: > 1000 nM
cannabinoid-CB1
  Ki: > 10000 nM
CCKB
  Ki: > 1000 nM
VIP1
  Ki: > 1000 nM
CRF
  Ki: > 10000 nM
5-HT1A
  Ki: 0.25 nM
Adenosine-A2A
  Ki: > 1000 nM
Histamine-H2
  Ki: > 1000 nM
Dopamine-D3
  Ki: > 1000 nM
Galanin-GAL1
  Ki: > 1000 nM
5-HT1B
  Ki: 2 nM
LTB4
  Ki: > 10000 nM
CCR1
  Ki: > 1000 nM
Neuropeptide Y1
  Ki: > 1000 nM
